These results are taken from paper PMC2710984 (International Journal of Peptide Research and Therapeutics, 2006).

The target of one test is XIAP BIR3 (Homo sapiens, UniProt P98170). As to the kind of experiment: Peptide–BIR3 binding assay.
Another test addresses GST–BIR3 (Homo sapiens, UniProt P98170). The format is biochemical.
The subject of a further test is XIAP BIR3 domain. To be noted: ref Nikolovska-Coleska et al., 2004; cited from earlier work.
Setting [1] is: IC50, inhibition of Smac–BIR3 interaction, FMAT.

Where “and” joins values, the source holds several entries; their conditions need not be identical. Equal entries are not always repeated. Where two headings read alike, the source gives them in different places. Square brackets hold non-standard residues; d marks the D form. Ends that are not written are not given here. Peptide text beside a SMILES is read from it. Abu = CC[C@H](N)C(=O)O; Lac = C[C@H](O)C(=O)O

Chain of XIAP BIR3 (P98170 241-356 limits assumed): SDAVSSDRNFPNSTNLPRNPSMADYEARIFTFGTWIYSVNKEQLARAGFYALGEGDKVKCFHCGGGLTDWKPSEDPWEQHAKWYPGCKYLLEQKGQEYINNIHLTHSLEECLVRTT
Chain of GST–BIR3 (P98170 241-356 limits assumed): as above

At XIAP BIR3, `CC(C)[C@H](NC(=O)[C@H](C)O)C(=O)N1CCC[C@H]1C(=O)N[C@@H](Cc1ccccc1)C(N)=O` [Compound 14, Lac–VPF] (H-[Lac]VPF-NH2) showed an IC50 greater than 1600 nM.

Take `CC[C@H](N)C(=O)N[C@H](C(=O)N1CCC[C@H]1C(=O)N[C@@H](Cc1ccccc1)C(N)=O)C(C)C` [Compound 9, Abu–VPF] (H-[Abu]VPF-NH2): at XIAP BIR3, the IC50 stood at 120 nM.

At XIAP BIR3, `CC(C)[C@H](NC(=O)[C@H](C)N)C(=O)N[C@@H](C)C(=O)N[C@@H](Cc1ccccc1)C(N)=O` [Compound 6, AVAF] registered an IC50 of 750 nM.

Compound `C[C@H](N)C(=O)N[C@H](C(=O)N1CCC[C@H]1C(=O)N[C@@H](Cc1ccccc1)C(N)=O)[C@@H](C)O` [Compound 17, ATPF] (H-ATPF-NH2) came in with an IC50 on XIAP BIR3 of 200 nM.

Take `CC(C)C[C@H](NC(=O)[C@H](C)N)C(=O)N1CCC[C@H]1C(=O)N[C@@H](Cc1ccccc1)C(N)=O` [Compound 15, ALPF] (H-ALPF-NH2): at XIAP BIR3, the IC50 turned out to be 180 nM.

AVPIAQ-NH2 [Compound 2, AVPIAQ] had an IC50 on XIAP BIR3 (setting [1]) of 270 nM.

Take `CC[C@H](C)[C@H](NC(=O)[C@H](C)N)C(=O)N[C@@H](C)C(=O)N[C@@H](Cc1ccc(O)cc1)C(N)=O` [Compound 8, AIAY] (H-AIAY-NH2): at XIAP BIR3, the IC50 was 340 nM.

Consider AVPFAQK-NH2 [AVPFAQK], for which half-maximal inhibition on GST–BIR3 (IC50) required 2000 nM.

As to `CC(C)[C@H](NC(=O)[C@H](C)N)C(=O)N1CCC[C@H]1C(N)=O` [Compound 5, AVP] (H-Ala-Val-Pro-NH2), the IC50 on XIAP BIR3 is greater than 10000 nM.

AVPIAQK-NH2 [Compound 1, AVPIAQK]: the half-inhibitory concentration (IC50) on XIAP BIR3 (setting [1]) was 400 nM and 390 nM; against GST–BIR3 it was 3000 nM.

At XIAP BIR3, `CC[C@H](C)[C@H](NC(=O)[C@H](C)N)C(=O)N1CCC[C@H]1C(=O)N[C@@H](Cc1ccccc1)C(N)=O` [Compound 16, AIPF] (H-AIPF-NH2) gave a 50% inhibitory concentration (IC50) of 80 nM.

In the case of `CC(C)[C@H](NC(=O)[C@H](C)N)C(=O)N1C[C@H](O)C[C@H]1C(=O)N[C@@H](Cc1ccccc1)C(N)=O` [Compound 20, AV–Hyp–F], the IC50 at XIAP BIR3 stood at 1000 nM.

At XIAP BIR3, `CC(C)[C@H](NC(=O)[C@@H](N)CO)C(=O)N1CCC[C@H]1C(=O)N[C@@H](Cc1ccccc1)C(N)=O` [Compound 10, SVPF] (H-SVPF-NH2) showed an IC50 of 1000 nM.

As for `CCCCCCCCCCCC1=C(O)C(=O)C=C(O)C1=O` [Embelin], in the test with XIAP BIR3 domain, the IC50 was 4100 nM.

For the compound AVPIA-NH2 [Compound 3, AVPIA], the half-inhibitory concentration (IC50) on XIAP BIR3 amounted to 300 nM.

As a reminder, the IC50 is the midpoint of a concentration-inhibition curve.
